Data on 22 compounds can be found in patent US20250171457A1, “NITROGEN-CONTAINING HETEROCYCLIC COMPOUND HAVING NRF2 ACTIVATION EFFECT” (CHUGAI SEIYAKU KABUSHIKI KAISHA, priority 2022, published 2025).

The test concerns Nrf2 transcriptional activity (pARE-Luc reporter) in HepG2 cells. The experiment in a line: In vitro Nrf2 transcriptional activity measurement by ARE-dependent reporter assay in HepG2 cell. It is filed as cell-based, human. The settings on record: Homo sapiens; HepG2 cells transfected with pARE-Luc, 4 hours at 37° C.; luciferase activity of Example 1-54 or Example 17-23 at 3.75 μM defined as 100%. Put shortly:
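Luminescence readout (Bright-Glo) after 4 h, 37° C compound exposure of HepG2 cells carrying the ARE-luciferase vector pGL4.37. Each well converted to % response versus reference compound at 3.75 μM, and EC50 derived from dose-response curves.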
Background: A reporter such as luciferase makes a cellular process visible.
The term EC50 denotes the concentration giving half of the maximal effect. The low end stands for a more potent agent, the high end for a less potent agent. For `O=C(O)c1cc(F)c(-c2cccc3c2OCN(C(=O)c2c(Cl)cc(N4CC5(C4)CN(C4COC4)C5)cc2Cl)C3)cc1N1C2CCC1COC2` [Compound 9-3, 4-[3-[2,6-Dichloro-4-[2-(oxetan-3-yl)-2,6-diazaspiro[3.3]heptan-6-yl]benzoyl]-2,4-dihydro-1,3-benzoxazin-8-yl]-5-fluoro-2-(3-oxa-8-azabicyclo[3.2.1]octan-8-yl)benzoic acid], a half-maximal effect (EC50) was put at 19 nM. Then `O=C(O)c1cc(F)c(-c2cccc3c2OCN(C(=O)c2c(Cl)cc(N4CC5(C4)CN(C4CC4)C5)cc2Cl)C3)cc1N1C2CCC1COC2` [Compound 9-4, 4-[3-[2,6-Dichloro-4-(2-cyclopropyl-2,6-diazaspiro[3.3]heptan-6-yl)benzoyl]-2,4-dihydro-1,3-benzoxazin-8-yl]-5-fluoro-2-(3-oxa-8-azabicyclo[3.2.1]octan-8-yl)benzoic acid], with 7.5 nM.

With `CN1CCN(c2cc(Cl)c(C(=O)N3COc4c(cccc4-c4cc(N5C6CCC5COC6)c(C(=O)O)cc4F)C3)c(Cl)c2)C2CC21` (stereo not shown) [Compound 9-5, 4-[3-[2,6-Dichloro-4-(5-methyl-2,5-diazabicyclo[4.1.0]heptan-2-yl)benzoyl]-2,4-dihydro-1,3-benzoxazin-8-yl]-5-fluoro-2-(3-oxa-8-azabicyclo[3.2.1]octan-8-yl)benzoic acid], it took 4.6 nM to reach a half-maximal effect (EC50). Consider `C[C@@H]1CN(c2cc(Cl)c(C(=O)N3COc4c(cccc4-c4cc(N5C6CCC5COC6)c(C(=O)O)cc4F)C3)c(Cl)c2)[C@@H](C)CN1C` [Compound 9-6, 4-[3-[2,6-Dichloro-4-[(2S,5R)-2,4,5-trimethylpiperazin-1-yl]benzoyl]-2,4-dihydro-1,3-benzoxazin-8-yl]-5-fluoro-2-(3-oxa-8-azabicyclo[3.2.1]octan-8-yl)benzoic acid], for which a half-maximal response (EC50) required 5.7 nM. With `CN1C2CCC1CN(c1cc(Cl)c(C(=O)N3COc4c(cccc4-c4cc(N5C6CCC5COC6)c(C(=O)O)cc4F)C3)c(Cl)c1)C2` [Compound 9-7, 4-[3-[2,6-Dichloro-4-(8-methyl-3,8-diazabicyclo[3.2.1]octan-3-yl)benzoyl]-2,4-dihydro-1,3-benzoxazin-8-yl]-5-fluoro-2-(3-oxa-8-azabicyclo[3.2.1]octan-8-yl)benzoic acid], the EC50 worked out at 14 nM.

For the compound `CN1CC2CCC(C1)N2c1cc(Cl)c(C(=O)N2COc3c(cccc3-c3cc(N4C5CCC4COC5)c(C(=O)O)cc3F)C2)c(Cl)c1` [Compound 9-8, 4-[3-[2,6-Dichloro-4-(3-methyl-3,8-diazabicyclo[3.2.1]octan-8-yl)benzoyl]-2,4-dihydro-1,3-benzoxazin-8-yl]-5-fluoro-2-(3-oxa-8-azabicyclo[3.2.1]octan-8-yl)benzoic acid], a half-maximal response (EC50) required 3.5 nM. Regarding `C[C@@H]1CN(c2cc(Cl)c(C(=O)N3COc4c(cccc4-c4cc(N5C6CCC5COC6)c(C(=O)O)cc4F)C3)c(Cl)c2)[C@H](C)CN1C` [Compound 9-9, 4-[3-[2,6-Dichloro-4-[(2R,5R)-2,4,5-trimethylpiperazin-1-yl]benzoyl]-2,4-dihydro-1,3-benzoxazin-8-yl]-5-fluoro-2-(3-oxa-8-azabicyclo[3.2.1]octan-8-yl)benzoic acid], the midpoint of the response, the EC50, lay at 1.5 nM. With `CN1CC2CC(C1)N2c1cc(Cl)c(C(=O)N2COc3c(cccc3-c3cc(N4C5CCC4COC5)c(C(=O)O)cc3F)C2)c(Cl)c1` [Compound 9-10, 4-[3-[2,6-Dichloro-4-(3-methyl-3,6-diazabicyclo[3.1.1]heptan-6-yl)benzoyl]-2,4-dihydro-1,3-benzoxazin-8-yl]-5-fluoro-2-(3-oxa-8-azabicyclo[3.2.1]octan-8-yl)benzoic acid], the EC50 was found to be 8.8 nM. The compound `C[C@@H]1CN(C)[C@@H](C)CN1c1cc(Cl)c(C(=O)N2COc3c(cccc3-c3cc(N4C5CCC4COC5)c(C(=O)O)cc3F)C2)c(Cl)c1` [Compound 9-11, 4-[3-[2,6-Dichloro-4-[(2R,5S)-2,4,5-trimethylpiperazin-1-yl]benzoyl]-2,4-dihydro-1,3-benzoxazin-8-yl]-5-fluoro-2-(3-oxa-8-azabicyclo[3.2.1]octan-8-yl)benzoic acid] came in with an EC50 of 19 nM. `C[C@H]1CN(C)CCN1c1cc(Cl)c(C(=O)N2COc3c(cccc3-c3cc(N4C5CCC4COC5)c(C(=O)O)cc3F)C2)c(Cl)c1` [Compound 9-12, 4-[3-[2,6-Dichloro-4-[(2S)-2,4-dimethylpiperazin-1-yl]benzoyl]-2,4-dihydro-1,3-benzoxazin-8-yl]-5-fluoro-2-(3-oxa-8-azabicyclo[3.2.1]octan-8-yl)benzoic acid] yielded an EC50 of 3.1 nM. Turning to `C[C@H]1CN(c2cc(Cl)c(C(=O)N3COc4c(cccc4-c4cc(N5C6CCC5COC6)c(C(=O)O)cc4F)C3)c(Cl)c2)[C@@H](C)CN1C` [Compound 9-13, 4-[3-[2,6-Dichloro-4-[(2S,5S)-2,4,5-trimethylpiperazin-1-yl]benzoyl]-2,4-dihydro-1,3-benzoxazin-8-yl]-5-fluoro-2-(3-oxa-8-azabicyclo[3.2.1]octan-8-yl)benzoic acid], it took 6.7 nM to reach a half-maximal effect (EC50). Compound `CN1CCN(c2cc(Cl)c(C(=O)N3COc4c(cccc4-c4cc(N5C6CCC5COC6)c(C(=O)O)cc4F)C3)c(Cl)c2)C(C)(C)C1` [Compound 9-14, 4-[3-[2,6-Dichloro-4-(2,2,4-trimethylpiperazin-1-yl)benzoyl]-2,4-dihydro-1,3-benzoxazin-8-yl]-5-fluoro-2-(3-oxa-8-azabicyclo[3.2.1]octan-8-yl)benzoic acid] registered an EC50 of 11 nM. As for `O=C(O)c1cc(F)c(-c2cccc3c2OCN(C(=O)c2c(Cl)cc(N4CCN(C5COC5)C5CC54)cc2Cl)C3)cc1N1C2CCC1COC2` (stereo not shown) [Compound 9-15, 4-[3-[2,6-Dichloro-4-[5-(oxetan-3-yl)-2,5-diazabicyclo[4.1.0]heptan-2-yl]benzoyl]-2,4-dihydro-1,3-benzoxazin-8-yl]-5-fluoro-2-(3-oxa-8-azabicyclo[3.2.1]octan-8-yl)benzoic acid], the EC50 came out at 14 nM. Then `C[C@@H]1CN(C2COC2)CCN1c1cc(Cl)c(C(=O)N2COc3c(cccc3-c3cc(N4C5CCC4COC5)c(C(=O)O)cc3F)C2)c(Cl)c1` [Compound 9-16, 4-[3-[2,6-Dichloro-4-[(2R)-2-methyl-4-(oxetan-3-yl)piperazin-1-yl]benzoyl]-2,4-dihydro-1,3-benzoxazin-8-yl]-5-fluoro-2-(3-oxa-8-azabicyclo[3.2.1]octan-8-yl)benzoic acid], with 4.8 nM. Then `O=C(O)c1cc(F)c(-c2cccc3c2OCN(C(=O)c2c(Cl)cc(N4CC5CCC(C4)N5C4COC4)cc2Cl)C3)cc1N1C2CCC1COC2` [Compound 9-17, 4-[3-[2,6-Dichloro-4-[8-(oxetan-3-yl)-3,8-diazabicyclo[3.2.1]octan-3-yl]benzoyl]-2,4-dihydro-1,3-benzoxazin-8-yl]-5-fluoro-2-(3-oxa-8-azabicyclo[3.2.1]octan-8-yl)benzoic acid], with 7.5 nM. In turn, `O=C(O)c1cc(F)c(-c2cccc3c2OCN(C(=O)c2c(Cl)cc(N4C5CCC4CN(C4COC4)C5)cc2Cl)C3)cc1N1C2CCC1COC2` [Compound 9-18, 4-[3-[2,6-Dichloro-4-[3-(oxetan-3-yl)-3,8-diazabicyclo[3.2.1]octan-8-yl]benzoyl]-2,4-dihydro-1,3-benzoxazin-8-yl]-5-fluoro-2-(3-oxa-8-azabicyclo[3.2.1]octan-8-yl)benzoic acid] had an EC50 of 6.4 nM. In turn, `C[C@H]1CN(C2COC2)CCN1c1cc(Cl)c(C(=O)N2COc3c(cccc3-c3cc(N4C5CCC4COC5)c(C(=O)O)cc3F)C2)c(Cl)c1` [Compound 9-19, 4-[3-[2,6-Dichloro-4-[(2S)-2-methyl-4-(oxetan-3-yl)piperazin-1-yl]benzoyl]-2,4-dihydro-1,3-benzoxazin-8-yl]-5-fluoro-2-(3-oxa-8-azabicyclo[3.2.1]octan-8-yl)benzoic acid] yielded an EC50 of 5.9 nM. Take `O=C(O)c1cc(F)c(-c2cccc3c2OCN(C(=O)c2c(Cl)cc(N4CC5CCC(C4)N5C4CC4)cc2Cl)C3)cc1N1C2CCC1COC2` [Compound 9-20, 4-[3-[2,6-Dichloro-4-(8-cyclopropyl-3,8-diazabicyclo[3.2.1]octan-3-yl)benzoyl]-2,4-dihydro-1,3-benzoxazin-8-yl]-5-fluoro-2-(3-oxa-8-azabicyclo[3.2.1]octan-8-yl)benzoic acid]: a half-maximal response (EC50) required 4.6 nM.

As for `O=C(O)c1cc(F)c(-c2cccc3c2OCN(C(=O)c2c(Cl)cc(N4C5CC4CN(C4CC(F)(F)C4)C5)cc2Cl)C3)cc1N1C2CCC1COC2` [Compound 9-21, 4-[3-[2,6-Dichloro-4-[3-(3,3-difluorocyclobutyl)-3,6-diazabicyclo[3.1.1]heptan-6-yl]benzoyl]-2,4-dihydro-1,3-benzoxazin-8-yl]-5-fluoro-2-(3-oxa-8-azabicyclo[3.2.1]octan-8-yl)benzoic acid], the EC50 was determined as 6 nM. For the compound `CCN1CCN(c2cc(Cl)c(C(=O)N3COc4c(cccc4-c4cc(N5C6CCC5COC6)c(C(=O)O)cc4F)C3)c(Cl)c2)[C@H](C)C1` [Compound 9-22, 4-[3-[2,6-Dichloro-4-[(2R)-4-ethyl-2-methylpiperazin-1-yl]benzoyl]-2,4-dihydro-1,3-benzoxazin-8-yl]-5-fluoro-2-(3-oxa-8-azabicyclo[3.2.1]octan-8-yl)benzoic acid], the EC50 worked out at 0.9 nM.

`CN1CCN(c2cc(Cl)c(C(=O)N3COc4c(cccc4-c4cc(N5C6CCC5COC6)c(C(=O)O)cc4F)C3)c(Cl)c2)CC1C(F)(F)F` (stereo not shown) [Compound 9-23, 4-[3-[2,6-Dichloro-4-[4-methyl-3-(trifluoromethyl)piperazin-1-yl]benzoyl]-2,4-dihydro-1,3-benzoxazin-8-yl]-5-fluoro-2-(3-oxa-8-azabicyclo[3.2.1]octan-8-yl)benzoic acid] displayed an EC50 of 3.1 nM. The same measure for `CC1C(C)N(c2cc(Cl)c(C(=O)N3COc4c(cccc4-c4cc(N5C6CCC5COC6)c(C(=O)O)cc4F)C3)c(Cl)c2)CCN1C` (stereo not shown) [Compound 9-24, 4-[3-[2,6-Dichloro-4-(2,3,4-trimethylpiperazin-1-yl)benzoyl]-2,4-dihydro-1,3-benzoxazin-8-yl]-5-fluoro-2-(3-oxa-8-azabicyclo[3.2.1]octan-8-yl)benzoic acid]: 2.5 nM.
